From patent US8633166B2, “Methicillin-resistant Staphylococcus aureus active metabolites” (priority 2009, dated 2014)
In brackets after ≈: the same amount, converted by molar mass. Blank lines part the entries; values can stand above or below the molecule they belong to.

Tests used:
enterococci = assay: In vitro MIC, for enterococci; type: cell-based; conditions: E. faecalis and E. faecium, vancomycin-susceptible and vancomycin-resistant strains
Description: (§1) All test articles were dissolved in DMSO. Stock solutions were prepared at 40-fold the highest concentration in the test plate. The final concentration of DMSO in the test system was 2.5%.
(§2) The medium employed for the MIC assay was Mueller Hinton II Broth (MHB II-Becton Dickinson, #212322, Lot #9044411) for most of the organisms. MHB II was supplemented with 2% lysed horse blood (Cleveland Scientific Lot #22299-1) to accommodate the growth of Streptococcus pneumoniae, Streptococcus pyogenes and Streptococcus agalactiae. The media were prepared at 102.5% the normal weight to offset the dilution created by the addition of 5 μL drug solution to each well of the microdilution panels. […]
(§3) Plates were stacked 3 high, covered with a lid on the top plate, placed in plastic bags, and incubated at 35° C. for approximately 18 hours for most of the isolates. The Streptococcus plates were read after 20 hours of incubation. […] The MIC was read and recorded as the lowest concentration of drug that inhibited visible growth of the organism.

Enterococcus faecalis = assay: In vitro MIC, broth microdilution (CLSI); type: cell-based
Description: as §1
(§4) The medium employed for the MIC assay was Mueller Hinton II Broth (MHB II-Becton Dickinson, #212322, Lot #9044411) for most of the organisms. MHB II was supplemented with 2% lysed horse blood (Cleveland Scientific Lot #22299-1) to accommodate the growth of Streptococcus pneumoniae, Streptococcus pyogenes and Streptococcus agalactiae. The media were prepared at 102.5% the normal weight to offset the dilution created by the addition of 5 μL drug solution to each well of the microdilution panels.
(§5) The MIC assay method followed the procedure described by the Clinical and Laboratory Standards Institute (see Clinical and Laboratory Standards Institute. Methods for Dilution Antimicrobial, Susceptibility Tests for Bacteria That Grow Aerobically; Approved Standard—Eighth Edition. CLSI document M07-A8 [ISBN 1-56238-689-1]. Clinical and Laboratory, Standards Institute, 940 West Valley Road, Suite 1400, Wayne, Pa. 19087-1898 USA, 2009) and employed automated liquid handlers to conduct serial dilutions and liquid transfers. Automated liquid handlers included the Multidrop 384 (Labsystems, Helsinki, Finland), Biomek 2000 and Multimek 96 (Beckman Coulter, Fullerton Calif.).
(§6) The wells of Columns 2-12 of standard 96-well microdilution plates (Falcon 3918) were filled with 150 μL of DMSO on the Multidrop 384. The drugs (300 μL) were dispensed into Column 1 of the appropriate row in these plates. These would become the mother plates from which the test plates (daughter plates) were prepared. The Biomek 2000 completed serial transfers through Column 11 in the mother plates. The wells of Column 12 contained no drug and were the organism growth control wells in the daughter plates. The daughter plates were loaded with 185 μL of the appropriate test media (described above) using the Multidrop 384. The daughter plates were prepared on the Multimek 96 instrument which transferred 5 μL of drug solution from each well of a mother plate to each corresponding well of each daughter plate in a single step. Therefore, the test agents were maintained in solution in 100% DMSO up until the point of being added to the final test medium.
(§7) Standardized inoculum of each organism was prepared per CLSI methods (See Clinical and Laboratory Standards Institute. Performance Standards for Antimicrobial Susceptibility Testing; Nineteenth Informational Supplement. CLSI document M100-S19 [ISBN 1-56238-690-5]. Clinical and Laboratory Standards Institute, 940 West Valley Road, Suite 1400, Wayne, Pa. 19087-1898 USA, 2009.). Suspensions were prepared in MHB to equal the turbidity of a 0.5 McFarland standard. The suspensions were diluted 1:9 in broth appropriate to the organism. The inoculum for each organism was dispensed into sterile reservoirs divided by width (Beckman Coulter), and the Biomek 2000 was used to inoculate the plates. Daughter plates were placed on the Biomek 2000 work surface reversed so that inoculation took place from low to high drug concentration. The Biomek 2000 delivered 10 μL of standardized inoculum into each well. This yielded a final cell concentration in the daughter plates of approximately 5×10^5 colony-forming-units/mL. Thus, the wells of the daughter plates ultimately contained 185 μL of broth, 5 μL of drug solution, and 10 μL of bacterial inoculum. The final concentration of DMSO in the assay plate was 2.5%.
as §3, with “incubation. The microplates were viewed from the bottom using a plate viewer.” for “incubation.”

Streptococcus pneumoniae = assay: In vitro MIC, broth microdilution (CLSI); type: cell-based; conditions: MHB II with 2% lysed horse blood
Description: as §1, §4, §5, §6, §7
as §3, with “incubation. The microplates were viewed from the bottom using a plate viewer.” for “incubation.”

Streptococcus agalactiae = assay: In vitro MIC, broth microdilution (CLSI); type: cell-based; conditions: MHB II with 2% lysed horse blood
Description: as §1, §4, §5, §6, §7
as §3, with “incubation. The microplates were viewed from the bottom using a plate viewer.” for “incubation.”

[1] = system: Staphylococcus epidermidis; assay: In vitro MIC, broth microdilution (CLSI); type: cell-based
Description: as §1, §4, §5, §6, §7
as §3, with “incubation. The microplates were viewed from the bottom using a plate viewer.” for “incubation.”

Streptococcus pyogenes = assay: In vitro MIC, broth microdilution (CLSI); type: cell-based; conditions: MHB II with 2% lysed horse blood
Description: as §1, §4, §5, §6, §7
as §3, with “incubation. The microplates were viewed from the bottom using a plate viewer.” for “incubation.”

Enterococcus faecium = assay: In vitro MIC, broth microdilution (CLSI); type: cell-based
Description: as §1, §4, §5, §6, §7
as §3, with “incubation. The microplates were viewed from the bottom using a plate viewer.” for “incubation.”

Staphylococcus aureus = assay: In vitro MIC, broth microdilution (CLSI); type: cell-based
Description: as §1, §4, §5, §6, §7
as §3, with “incubation. The microplates were viewed from the bottom using a plate viewer.” for “incubation.”

[2] = system: methicillin resistant Staphylococcus aureus (MRSA); assay: In vitro antimicrobial evaluation, modified CLSI (formerly NCCLS) method; type: cell-based; conditions: IC50 from percent growth versus test concentration; values only in FIG. 1
Description: The in vitro antimicrobial activity for the isolated glycosides is represented in FIG. 1. A modified version of CLSI (formerly NCCLS) method was used for the in vitro evaluation of test samples. Duplicate samples were transferred to 96-well microplates after diluting with 0.9% saline. The microbial cell suspensions were to give the desired target inocula after addition to the samples. Media and solvent controls were included in each assay. The IC50 was calculated by plotting percent growth versus test concentration.

streptococci = assay: In vitro MIC, streptococci; type: cell-based, Streptococcus; conditions: highest concentrations considered for MIC readings
Description: as §1, §2, §3

[3] = system: Methicillin-resistant Staphylococcus aureus; assay: In vivo MRSA assay, thigh infection in a murine model; parameters: species or system Mice (CD-1); conditions: vancomycin treated animals
Description: The in vivo antimicrobial activity for the isolated glycosides is represented in FIGS. 2A and 2B. Mice (CD-1) were purchased from Harlan Inc. and acclimatized up to 5 days before use. Food and water were available ad libitum throughout the study. They were rendered neutropenic by two injections of cyclophosphamide (100 mg/kg) given intraperitoneally, one and four days before infection. A volume of 50 uL suspension of Methicillin-resistant Staphylococcus aureus (1.5×10^6 live organisms) was injected intramuscularly (1M) into each of the two rear thighs. Each thigh was considered as an individual data point (total of 4 data points for each treatment). These mice were randomly distributed into the control or treatment groups (n=2/group).
Treatment with the test compound (1) was initiated via the intraperitoneal route 2 hrs after thigh inoculation. Control animals were concurrently administered saline (mock treatment) or vancomycin in the same volume as those receiving compound (1). All animals were sacrificed after 48 hours by CO2 inhalation. Immediately following sacrifice, thigh tissue was collected from the animals, weighed, and homogenized in 5.0 mL of saline. Thigh muscle homogenate was then processed for microbiological assay to determine the number of MRSA cfu per gram of muscle tissue.

MRSA = conditions: background statement; cited from earlier work

MIC (Enterococcus faecalis; MMX 101, CLSI QC, ATCC 29212): 8 µg/mL (≈ 11 µM)
MIC (Enterococcus faecalis; MMX 742, VSE, CHP): >8 µg/mL
MIC (Enterococcus faecalis; MMX 3199, VSE, UCLA): >8 µg/mL
MIC (Enterococcus faecalis; MMX 3821, VRE, Mt. Sinai): 8 µg/mL (≈ 11 µM)
MIC (Enterococcus faecalis; MMX 3896, VSE, Mt. Sinai): >8 µg/mL
MIC (Enterococcus faecalis; MMX 4131, VRE, CHP): 4 µg/mL (≈ 5.52 µM)
MIC (Enterococcus faecalis; MMX 4160, VRE, UCLA): 8 µg/mL (≈ 11 µM)
MIC (Streptococcus pneumoniae; MMX 748, PRSP, CHP): >32 µg/mL
MIC (Streptococcus pneumoniae; MMX 866, PSSP, CHP): >32 µg/mL
MIC (Streptococcus pneumoniae; MMX 1195, CLSI QC, ATCC 49619): >32 µg/mL
MIC (Streptococcus pneumoniae; MMX 3130, PSSP, UCLA): >32 µg/mL
MIC (Streptococcus pneumoniae; MMX 3160, PRSP, UCLA): >32 µg/mL
MIC (Streptococcus pneumoniae; MMX 3937, PSSP, Mt. Sinai): >32 µg/mL
MIC (Streptococcus pneumoniae; MMX 3953, PRSP, Mt. Sinai): >32 µg/mL
MIC (Streptococcus agalactiae; MMX 3743, Mt. Sinai): >32 µg/mL
MIC (Streptococcus agalactiae; MMX 4093, UCLA): >32 µg/mL
MIC (Streptococcus agalactiae; MMX 4106, CHP): >32 µg/mL
MIC ([1]; MMX 762, MRSE, CHP): >8 µg/mL
MIC ([1]; MMX 826, MRSE, UCLA): >8 µg/mL
MIC ([1]; MMX 835, MSSE, UCLA): 8 µg/mL (≈ 11 µM)
MIC ([1]; MMX 3703, MSSE, CHP): 8 µg/mL (≈ 11 µM)
MIC ([1]; MMX 3752, MRSE, Mt. Sinai): >8 µg/mL
MIC ([1]; MMX 3763, MSSE, Mt. Sinai): 8 µg/mL (≈ 11 µM)
MIC (Streptococcus pyogenes; MMX 718, CHP): >32 µg/mL
MIC (Streptococcus pyogenes; MMX 2572, UCLA): >32 µg/mL
MIC (Streptococcus pyogenes; MMX 3928, Mt. Sinai): >32 µg/mL
MIC (Enterococcus faecium; MMX 0799, VSE, CHP): >8 µg/mL
MIC (Enterococcus faecium; MMX 0845, VSE, UCLA): 4 µg/mL (≈ 5.52 µM)
MIC (Enterococcus faecium; MMX 1238, VRE, Mt. Sinai): 4 µg/mL (≈ 5.52 µM)
MIC (Enterococcus faecium; MMX 1259, VSE, Mt. Sinai): >8 µg/mL
MIC (Enterococcus faecium; MMX 4024, VRE, CHP): >8 µg/mL
MIC (Enterococcus faecium; MMX 4048, VRE, UCLA): >8 µg/mL
MIC (Staphylococcus aureus; MMX 100, CLSI QC, ATCC 29213): >8 µg/mL
MIC (Staphylococcus aureus; MMX 753, MSSA, CHP): >8 µg/mL
MIC (Staphylococcus aureus; MMX 758, MRSA, CHP): >8 µg/mL
MIC (Staphylococcus aureus; MMX 2055, MRSA, UCLA): >8 µg/mL
MIC (Staphylococcus aureus; MMX 2063, MSSA, UCLA): >8 µg/mL
MIC (Staphylococcus aureus; MMX 3856, MSSA, Mt. Sinai): >8 µg/mL
MIC (Staphylococcus aureus; MMX 3894, MRSA, Mt. Sinai): >8 µg/mL
SMILES: C[C@@H]1O[C@@H](Oc2c(-c3ccc(O)cc3)oc3cc(O)cc(O)c3c2=O)[C@H](OC(=O)/C=C\c2ccc(O)cc2)[C@H](OC(=O)/C=C\c2ccc(O)cc2)[C@H]1O [Compound 4, kaempferol 3-O-α-L-(2″,3″-di-Z-p-coumaroyl)rhamnoside]
activity against enterococci (enterococci): inhibited multiple strains
in vitro activity (rank among the four compounds) [2]: most potent in vitro activity
activity against the streptococci (streptococci): Neither compound was active

SMILES: CN[C@H](CC(C)C)C(=O)N[C@H]1C(=O)N[C@@H](CC(N)=O)C(=O)N[C@H]2C(=O)N[C@H]3C(=O)N[C@H](C(=O)N[C@H](C(=O)O)c4cc(O)cc(O)c4-c4cc3ccc4O)[C@H](O)c3ccc(c(Cl)c3)Oc3cc2cc(c3O[C@@H]2O[C@H](CO)[C@@H](O)[C@H](O)[C@H]2O[C@H]2C[C@](C)(N)[C@H](O)[C@H](C)O2)Oc2ccc(cc2Cl)[C@H]1O [Vancomycin, reference compound]
reduction compared to vehicle control [3]: 72%
number of MRSA isolated from muscle tissue ([3]; intraperitoneal, 48 hours, neutropenic mice): 2.2×10^7 g of tissue
success rate (MRSA): 35-57%
